Laboratory results as given in patent US20240132431A1, “METHOD FOR ALKYLATING ACIDIC FUNCTIONAL GROUP” (Chugai Seiyaku Kabushiki Kaisha, priority 2021, published 2024).

Target: T1, Bcl-2 protein (Recombinant Human Bcl-2 Protein) (Homo sapiens, UniProt P10415)
T1 construct: purchased Novus NBP2-34889
Test: Binding evaluation of mixture library compounds to Bcl-2 using AS-MS (affinity selection mass spectrometry)
Conditions: for ASMS ratio (%) n = 1 / ASMS ratio (%) n = 2: ASMS Ratio(%)=(A−C)/B×100; for ASMS ratio (%) n = 1: replicate n = 1; for ASMS ratio (%) n = 2: replicate n = 2
Outline: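 Bcl-2 binding is scored from LC/MS signal retained with protein through gel-filtration spin columns, normalised to unfiltered and protein-free controls. Incubation: 20 μM protein, […] per compound, 1 h, 23° C.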

[1] = AS-MS, mixture of 1200 compounds, Bcl-2
[2] = AS-MS on the mixture of 1200 library compounds

T1 sequence (P10415 whole entry): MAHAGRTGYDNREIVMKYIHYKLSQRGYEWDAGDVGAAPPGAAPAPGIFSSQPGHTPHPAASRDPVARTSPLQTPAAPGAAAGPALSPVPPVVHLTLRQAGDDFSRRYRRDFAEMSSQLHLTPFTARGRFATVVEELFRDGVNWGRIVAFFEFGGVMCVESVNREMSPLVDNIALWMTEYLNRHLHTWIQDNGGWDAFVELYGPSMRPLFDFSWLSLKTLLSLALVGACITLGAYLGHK

## CCOc1cccc(-c2cc(CN3CCN(c4ccc(C(=O)NS(C)(=O)=O)nn4)CC3)cc(OC(F)(F)F)c2)c1 [B2I089-01, 6-[4-[[3-(3-Ethoxyphenyl)-5-(trifluoromethoxy)phenyl]methyl]piperazin-1-yl]-N-methylsulfonylpyridazine-3-carboxamide]
N = 1
  ASMS ratio (%): 1.4%
N = 2
  ASMS ratio (%): 0.0%

## CCOc1cncc(-c2csc(CN3CCN(c4ccc(C(=O)NCC56CC7CC(CC(C7)C5)C6)nn4)CC3)c2)c1 [B1A094-01, N-(1-Adamantylmethyl)-6-[4-[[4-(5-ethoxypyridin-3-yl)thiophen-2-yl]methyl]piperazin-1-yl]pyridazine-3-carboxamide]
[1]
  ASMS ratio (%) n = 1: 6.2%
  ASMS ratio (%) n = 2: −0.7%

## CCOc1cncc(-c2cc(CN3CCN(c4ccc(C(=O)NS(C)(=O)=O)cc4)CC3)cc(OC(C)C)c2)c1 [B2I058-01, 4-[4-[[3-(5-Ethoxypyridin-3-yl)-5-propan-2-yloxyphenyl]methyl]piperazin-1-yl]-N-methylsulfonylbenzamide]
N = 1
  ASMS ratio (%): 0.0%
N = 2
  ASMS ratio (%): 0.0%

## CCOc1cccc(-c2ccc(CN3CCN(c4ccc(C(=O)N(C)CC56CC7CC(CC(C7)C5)C6)nn4)CC3)c(OC)c2)c1 [B3A079-01, N-(1-Adamantylmethyl)-6-[4-[[4-(3-ethoxyphenyl)-2-methoxyphenyl]methyl]piperazin-1-yl]-N-methylpyridazine-3-carboxamide]
[2]
  ASMS ratio (%) n = 1: −5.8%
  ASMS ratio (%) n = 2: 5.4%

## CCOc1cccc(-c2cc(OC)c(CN3CCN(c4ccc(C(=O)Nc5ccc(OC)cc5)cc4)CC3)c(OC)c2)c1 [B1O059-01, 4-[4-[[4-(3-Ethoxyphenyl)-2,6-dimethoxyphenyl]methyl]piperazin-1-yl]-N-(4-methoxyphenyl)benzamide]
[2]
  ASMS ratio (%) n = 1: 2.0%
  ASMS ratio (%) n = 2: −1.9%

## CCOc1cccc(C#Cc2cncc(C(=O)N3CCN(c4ccc(C(=O)NS(C)(=O)=O)cc4)CC3)c2)c1 [B2I031-01, 4-[4-[5-[2-(3-Ethoxyphenyl)ethynyl]pyridine-3-carbonyl]piperazin-1-yl]-N-methylsulfonylbenzamide]
AS-MS, mixture library, Bcl-2
  ASMS ratio (%) n = 1: 0.0%
  ASMS ratio (%) n = 2: 0.0%

## CCOc1cccc(-c2cc(CN3CCN(c4ccc(C(=O)NCC(F)(F)F)nn4)CC3)cc(OC(F)(F)F)c2)c1 [B1K089-01, 6-[4-[[3-(3-Ethoxyphenyl)-5-(trifluoromethoxy)phenyl]methyl]piperazin-1-yl]-N-(2,2,2-trifluoroethyl)pyridazine-3-carboxamide]
[1]
  ASMS ratio (%) n = 1: 2.0%
  ASMS ratio (%) n = 2: 1.0%

## CCOc1cncc(-c2ccc(CN3CCN(c4ccc(C(=O)N(CC)CC)cc4)CC3)c(OC)c2)c1 [B4J054-01, 4-[4-[[4-(5-Ethoxypyridin-3-yl)-2-methoxyphenyl]methyl]piperazin-1-yl]-N,N-diethylbenzamide]
[2]
  ASMS ratio (%) n = 1: 0.0%
  ASMS ratio (%) n = 2: −1.1%

## CCOc1cncc(-c2ccc(C(C)N3CCN(c4ccc(C(=O)NS(=O)(=O)CC56CC7CC(CC(C7)C5)C6)cc4)CC3)c(F)c2)c1 (stereo not shown) [B2A100-01, N-(1-Adamantylmethylsulfonyl)-4-[4-[1-[4-(5-ethoxypyridin-3-yl)-2-fluorophenyl]ethyl]piperazin-1-yl]benzamide]
AS-MS, mixture library, Bcl-2
  ASMS ratio (%) n = 1: 0.0%
  ASMS ratio (%) n = 2: 0.0%

## CCOc1cncc(C#Cc2ccccc2CN2CCN(c3ccc(C(=O)NCC(F)(F)F)nn3)CC2)c1 [B1K096-01, 6-[4-[[2-[2-(5-Ethoxypyridin-3-yl)ethynyl]phenyl]methyl]piperazin-1-yl]-N-(2,2,2-trifluoroethyl)pyridazine-3-carboxamide]
[1]
  ASMS ratio (%) n = 1: 0.0%
  ASMS ratio (%) n = 2: 0.0%

## CCOc1cccc(C#Cc2ccccc2C(=O)N2CCN(c3ccc(C(=O)NS(=O)(=O)C(C)(C)C)cc3)CC2)c1 [B2L029-01, N-tert-Butylsulfonyl-4-[4-[2-[2-(3-ethoxyphenyl)ethynyl]benzoyl]piperazin-1-yl]benzamide]
N = 1
  ASMS ratio (%): 0.0%

## 6-[4-[4-(3-Ethoxyphenyl)-3-fluorobenzoyl]piperazin-1-yl]-N-propylpyridazine-3-carboxamide [B1M087-01]
[2]
  ASMS ratio (%) n = 1: 3.8%
  ASMS ratio (%) n = 2: 3.2%

## CCOc1cccc(-c2ccc(C(=O)N3CCN(c4ccc(C(=O)NCC(F)(F)F)cc4)CC3)cc2F)c1 [B1K027-01, 4-[4-[4-(3-Ethoxyphenyl)-3-fluorobenzoyl]piperazin-1-yl]-N-(2,2,2-trifluoroethyl)benzamide]
[1]
  ASMS ratio (%) n = 1: −0.8%
  ASMS ratio (%) n = 2: −3.6%

## CCOc1cncc(C#Cc2ccccc2C(=O)N2CCN(c3ccc(C(=O)NS(=O)(=O)CCC(F)(F)F)nn3)CC2)c1 [B2N008-01, 6-[4-[2-[2-(5-Ethoxypyridin-3-yl)ethynyl]benzoyl]piperazin-1-yl]-N-(3,3,3-trifluoropropylsulfonyl)pyridazine-3-carboxamide]
N = 1
  ASMS ratio (%): 0.0%
N = 2
  ASMS ratio (%): −0.4%

## CCOc1cccc(-c2cc(CN3CCN(c4ccc(C(=O)NS(=O)(=O)c5ccc(NCCSc6ccccc6)c(C(F)(F)F)c5)nn4)CC3)cc(C(F)(F)F)c2)c1 [B2R087-01, 6-[4-[[3-(3-Ethoxyphenyl)-5-(trifluoromethyl)phenyl]methyl]piperazin-1-yl]-N-[4-(2-phenylsulfanylethylamino)-3-(trifluoromethyl)phenyl]sulfonylpyridazine-3-carboxamide]
N = 1
  ASMS ratio (%): 3.8%
N = 2
  ASMS ratio (%): 7.1%

## CCOc1cncc(-c2ccc(C(=O)N3CCN(c4ccc(C(=O)NS(C)(=O)=O)cc4)CC3)c3ccccc23)c1 [B2I036-01, 4-[4-[4-(5-Ethoxypyridin-3-yl)naphthalene-1-carbonyl]piperazin-1-yl]-N-methylsulfonylbenzamide]
AS-MS, mixture library, Bcl-2
  ASMS ratio (%) n = 1: −0.7%
  ASMS ratio (%) n = 2: 1.5%

## CCOc1cncc(-c2ccc(C(=O)N3CCN(c4ccc(C(=O)N(CC)CC)cc4)CC3)cc2F)c1 [B4J028-01, 4-[4-[4-(5-Ethoxypyridin-3-yl)-3-fluorobenzoyl]piperazin-1-yl]-N,N-diethylbenzamide]
[2]
  ASMS ratio (%) n = 1: −1.0%
  ASMS ratio (%) n = 2: 0.9%

## CCOc1cncc(-c2csc(C(=O)N3CCN(c4ccc(C(=O)N(C)CC56CC7CC(CC(C7)C5)C6)cc4)CC3)c2)c1 [B3A024-01, N-(1-Adamantylmethyl)-4-[4-[4-(5-ethoxypyridin-3-yl)thiophene-2-carbonyl]piperazin-1-yl]-N-methylbenzamide]
[2]
  ASMS ratio (%) n = 1: 1.6%
  ASMS ratio (%) n = 2: −0.4%

## CCOc1cccc(-c2cc(C(=O)N3CCN(c4ccc(C(=O)NS(=O)(=O)c5ccc(NCCSc6ccccc6)c([N+](=O)[O-])c5)cc4)CC3)cc(C(F)(F)F)c2)c1 [B2Q039-01, 4-[4-[3-(3-Ethoxyphenyl)-5-(trifluoromethyl)benzoyl]piperazin-1-yl]-N-[3-nitro-4-(2-phenylsulfanylethylamino)phenyl]sulfonylbenzamide]
AS-MS, mixture library, Bcl-2
  ASMS ratio (%) n = 1: 7.2%
  ASMS ratio (%) n = 2: 4.6%

## CCOc1cccc(-c2csc(CN3CCN(c4ccc(C(=O)Nc5ccc(OC)cc5)nn4)CC3)c2)c1 [B1O093-01, 6-[4-[[4-(3-Ethoxyphenyl)thiophen-2-yl]methyl]piperazin-1-yl]-N-(4-methoxyphenyl)pyridazine-3-carboxamide]
[2]
  ASMS ratio (%) n = 1: 0.0%
  ASMS ratio (%) n = 2: 0.6%

## CCOc1cncc(-c2cc(CN3CCN(c4ccc(C(=O)NCC(F)(F)F)cc4)CC3)cc(C(F)(F)F)c2)c1 [B1K062-01, 4-[4-[[3-(5-Ethoxypyridin-3-yl)-5-(trifluoromethyl)phenyl]methyl]piperazin-1-yl]-N-(2,2,2-trifluoroethyl)benzamide]
[1]
  ASMS ratio (%) n = 1: 1.2%
  ASMS ratio (%) n = 2: −0.3%

## CCOc1cncc(-c2ccc(C(=O)N3CCN(c4ccc(C(=O)N(C)CC56CC7CC(CC(C7)C5)C6)nn4)CC3)cc2F)c1 [B3A006-01, N-(1-Adamantylmethyl)-6-[4-[4-(5-ethoxypyridin-3-yl)-3-fluorobenzoyl]piperazin-1-yl]-N-methylpyridazine-3-carboxamide]
[2]
  ASMS ratio (%) n = 1: 0.0%
  ASMS ratio (%) n = 2: 0.0%

## CCCNC(=O)c1ccc(N2CCN(Cc3ccc(-c4cncc(OCC)c4)cc3CC)CC2)cc1 [B1M075-01]
[1]
  ASMS ratio (%) n = 1: 77.3%
  ASMS ratio (%) n = 2: 46.1%

## CCOc1cccc(-c2ccc(CN3CCN(c4ccc(C(=O)NCC56CC7CC(CC(C7)C5)C6)cc4)CC3)cc2C)c1 [B1A047-01, N-(1-Adamantylmethyl)-4-[4-[[4-(3-ethoxyphenyl)-3-methylphenyl]methyl]piperazin-1-yl]benzamide]
[1]
  ASMS ratio (%) n = 1: 3.2%
  ASMS ratio (%) n = 2: 2.5%

## CCOc1cccc(-c2cc(CN3CCN(c4ccc(C(=O)NS(=O)(=O)CC56CC7CC(CC(C7)C5)C6)nn4)CC3)cc(OCC)c2)c1 [B2A081-01, N-(1-Adamantylmethylsulfonyl)-6-[4-[[3-ethoxy-5-(3-ethoxyphenyl)phenyl]methyl]piperazin-1-yl]pyridazine-3-carboxamide]
AS-MS, mixture library, Bcl-2
  ASMS ratio (%) n = 1: 18.6%
  ASMS ratio (%) n = 2: 16.7%
